Experimental data from paper PMC10289903 (Investigational New Drugs, 2023).
Where two headings read alike, the source gives them in different places.

Test system: patients with locally advanced or metastatic solid tumors
Excerpt: This was a Phase Ib, multicenter, open-label, dose-finding clinical trial (NCT02610075). […] Three types of treatment schedules were investigated: cohorts bid 1, bid 2, qd 1.1, qd 2.1 and qd 3.1 received bid or qd treatment on a 5/9 schedule (5 days on treatment, followed by 9 days off) on a 14-day cycle. Cohorts qd 1.2, qd 2.2, and qd 3.2 received treatment on a 5/2 schedule (5 days on followed by 2 days off for 2 of 3 weeks) in a 21-day cycle. Cohorts qd 2.3 and qd 3.3 received treatment on a weekly 5/2 schedule in a 21-day cycle (Table 1). The highest dose level(s) at which less than one-third of evaluable patients (none of 3 patients or 1 of 6 patients) experienced a dose-limiting toxicity (DLT) was declared the MTD.
The per protocol analysis set was defined as a subset of the full analysis set, excluding subjects having an important protocol deviation, to be used for analyses of efficacy endpoints if appropriate.

[1] = qd 2.3: 250 mg qd 5/2 weekly (n=10)

C=CCn1c(=O)c2cnc(Nc3ccc(N4CCN(C)CC4)cc3)nc2n1-c1cccc(C(C)(C)O)n1 [adavosertib, Adavosertib]
Thrombocytopenia (treatment-related AE) (qd 2.1: 250 mg qd 5/9 (n=4)): 0 n (%) | Urinary tract infection (treatment-emergent AE) (qd 2.1: 250 mg qd 5/9 (n=4)): 0 n (%) | Vomiting (treatment-emergent AE) (qd 2.1: 250 mg qd 5/9 (n=4)): 0 n (%) | Vomiting (treatment-related AE) (qd 2.1: 250 mg qd 5/9 (n=4)): 0 n (%) | Abdominal pain (treatment-emergent AE) (qd 2.2: 250 mg qd 5/2 (n=3)): 0 n (%) | Abdominal pain (treatment-related AE) (qd 2.2: 250 mg qd 5/2 (n=3)): 0 n (%) | Alanine aminotransferase increased (treatment-emergent AE) (qd 2.2: 250 mg qd 5/2 (n=3)): 1 (33.3) n (%) | Anemia (treatment-emergent AE) (qd 2.2: 250 mg qd 5/2 (n=3)): 1 (33.3) n (%) | Anemia (treatment-related AE) (qd 2.2: 250 mg qd 5/2 (n=3)): 1 (33.3) n (%) | Any AE (treatment-emergent) (qd 2.2: 250 mg qd 5/2 (n=3)): 3 (100) n (%) | Any grade ≥ 3 AE (qd 2.2: 250 mg qd 5/2 (n=3)): 3 (100.0) n (%) | Any treatment-related AE (qd 2.2: 250 mg qd 5/2 (n=3)): 3 (100) n (%) | Any treatment-related grade ≥ 3 AE (qd 2.2: 250 mg qd 5/2 (n=3)): 3 (100.0) n (%) | Asthenia (treatment-emergent AE) (qd 2.2: 250 mg qd 5/2 (n=3)): 1 (33.3) n (%) | Asthenia (treatment-related AE) (qd 2.2: 250 mg qd 5/2 (n=3)): 1 (33.3) n (%) | Back pain (treatment-emergent AE) (qd 2.2: 250 mg qd 5/2 (n=3)): 1 (33.3) n (%) | Constipation (treatment-emergent AE) (qd 2.2: 250 mg qd 5/2 (n=3)): 1 (33.3) n (%) | Constipation (treatment-related AE) (qd 2.2: 250 mg qd 5/2 (n=3)): 1 (33.3) n (%) | Cough (treatment-emergent AE) (qd 2.2: 250 mg qd 5/2 (n=3)): 1 (33.3) n (%) | Decreased appetite (treatment-emergent AE) (qd 2.2: 250 mg qd 5/2 (n=3)): 1 (33.3) n (%) | Decreased appetite (treatment-related AE) (qd 2.2: 250 mg qd 5/2 (n=3)): 0 n (%) | Dehydration (treatment-emergent AE) (qd 2.2: 250 mg qd 5/2 (n=3)): 2 (66.7) n (%) | Dehydration (treatment-related AE) (qd 2.2: 250 mg qd 5/2 (n=3)): 1 (33.3) n (%) | Diarrhea (treatment-emergent AE) (qd 2.2: 250 mg qd 5/2 (n=3)): 2 (66.7) n (%) | Diarrhea (treatment-related AE) (qd 2.2: 250 mg qd 5/2 (n=3)): 2 (66.7) n (%) | Dizziness (treatment-emergent AE) (qd 2.2: 250 mg qd 5/2 (n=3)): 0 n (%) | Dyspepsia (treatment-emergent AE) (qd 2.2: 250 mg qd 5/2 (n=3)): 0 n (%) | Dyspepsia (treatment-related AE) (qd 2.2: 250 mg qd 5/2 (n=3)): 0 n (%) | Dyspnea (treatment-emergent AE) (qd 2.2: 250 mg qd 5/2 (n=3)): 0 n (%) | Edema peripheral (treatment-emergent AE) (qd 2.2: 250 mg qd 5/2 (n=3)): 0 n (%) | Fall (treatment-emergent AE) (qd 2.2: 250 mg qd 5/2 (n=3)): 1 (33.3) n (%) | Fatigue (treatment-emergent AE) (qd 2.2: 250 mg qd 5/2 (n=3)): 2 (66.7) n (%) | Fatigue (treatment-related AE) (qd 2.2: 250 mg qd 5/2 (n=3)): 2 (66.7) n (%) | Headache (treatment-emergent AE) (qd 2.2: 250 mg qd 5/2 (n=3)): 0 n (%) | Hypokalemia (treatment-emergent AE) (qd 2.2: 250 mg qd 5/2 (n=3)): 1 (33.3) n (%) | Insomnia (treatment-emergent AE) (qd 2.2: 250 mg qd 5/2 (n=3)): 0 n (%) | Muscle spasms (treatment-emergent AE) (qd 2.2: 250 mg qd 5/2 (n=3)): 1 (33.3) n (%) | Myalgia (treatment-emergent AE) (qd 2.2: 250 mg qd 5/2 (n=3)): 0 n (%) | Myalgia (treatment-related AE) (qd 2.2: 250 mg qd 5/2 (n=3)): 0 n (%) | Nausea (treatment-emergent AE) (qd 2.2: 250 mg qd 5/2 (n=3)): 2 (66.7) n (%) | Nausea (treatment-related AE) (qd 2.2: 250 mg qd 5/2 (n=3)): 2 (66.7) n (%) | Neutropenia (treatment-emergent AE) (qd 2.2: 250 mg qd 5/2 (n=3)): 0 n (%) | Neutropenia (treatment-related AE) (qd 2.2: 250 mg qd 5/2 (n=3)): 0 n (%) | Pneumonia (treatment-emergent AE) (qd 2.2: 250 mg qd 5/2 (n=3)): 1 (33.3) n (%) | Pyrexia (treatment-emergent AE) (qd 2.2: 250 mg qd 5/2 (n=3)): 2 (66.7) n (%) | Rash (treatment-emergent AE) (qd 2.2: 250 mg qd 5/2 (n=3)): 1 (33.3) n (%) | Thrombocytopenia (treatment-emergent AE) (qd 2.2: 250 mg qd 5/2 (n=3)): 1 (33.3) n (%) | Thrombocytopenia (treatment-related AE) (qd 2.2: 250 mg qd 5/2 (n=3)): 1 (33.3) n (%) | Urinary tract infection (treatment-emergent AE) (qd 2.2: 250 mg qd 5/2 (n=3)): 1 (33.3) n (%) | Vomiting (treatment-emergent AE) (qd 2.2: 250 mg qd 5/2 (n=3)): 2 (66.7) n (%) | Vomiting (treatment-related AE) (qd 2.2: 250 mg qd 5/2 (n=3)): 2 (66.7) n (%) | Abdominal pain (treatment-emergent AE) [1]: 2 (20.0) n (%) | Abdominal pain (treatment-related AE) [1]: 0 n (%) | Alanine aminotransferase increased (treatment-emergent AE) [1]: 1 (10.0) n (%) | Anemia (treatment-emergent AE) [1]: 2 (20.0) n (%) | Anemia (treatment-related AE) [1]: 1 (10.0) n (%) | Any AE (treatment-emergent) [1]: 8 (80.0) n (%) | Any grade ≥ 3 AE [1]: 5 (50.0) n (%) | Any treatment-related AE [1]: 8 (80.0) n (%) | Any treatment-related grade ≥ 3 AE [1]: 4 (40.0) n (%) | Asthenia (treatment-emergent AE) [1]: 0 n (%) | Asthenia (treatment-related AE) [1]: 0 n (%) | Back pain (treatment-emergent AE) [1]: 2 (20.0) n (%) | Constipation (treatment-emergent AE) [1]: 2 (20.0) n (%) | Constipation (treatment-related AE) [1]: 2 (20.0) n (%) | Cough (treatment-emergent AE) [1]: 0 n (%) | Decreased appetite (treatment-emergent AE) [1]: 3 (30.0) n (%) | Decreased appetite (treatment-related AE) [1]: 2 (20.0) n (%) | Dehydration (treatment-emergent AE) [1]: 5 (50.0) n (%) | Dehydration (treatment-related AE) [1]: 2 (20.0) n (%) | Diarrhea (treatment-emergent AE) [1]: 7 (70.0) n (%) | Diarrhea (treatment-related AE) [1]: 7 (70.0) n (%) | Dizziness (treatment-emergent AE) [1]: 2 (20.0) n (%) | Dyspepsia (treatment-emergent AE) [1]: 0 n (%) | Dyspepsia (treatment-related AE) [1]: 0 n (%) | Dyspnea (treatment-emergent AE) [1]: 0 n (%) | Edema peripheral (treatment-emergent AE) [1]: 2 (20.0) n (%) | Fall (treatment-emergent AE) [1]: 2 (20.0) n (%) | Fatigue (treatment-emergent AE) [1]: 3 (30.0) n (%) | Fatigue (treatment-related AE) [1]: 2 (20.0) n (%) | Headache (treatment-emergent AE) [1]: 0 n (%) | Hypokalemia (treatment-emergent AE) [1]: 3 (30.0) n (%) | Insomnia (treatment-emergent AE) [1]: 3 (30.0) n (%) | Muscle spasms (treatment-emergent AE) [1]: 1 (10.0) n (%) | Myalgia (treatment-emergent AE) [1]: 2 (20.0) n (%) | Myalgia (treatment-related AE) [1]: 2 (20.0) n (%) | Nausea (treatment-emergent AE) [1]: 3 (30.0) n (%) | Nausea (treatment-related AE) [1]: 2 (20.0) n (%) | Neutropenia (treatment-emergent AE) [1]: 1 (10.0) n (%) | Neutropenia (treatment-related AE) [1]: 1 (10.0) n (%) | Pneumonia (treatment-emergent AE) [1]: 1 (10.0) n (%) | Pyrexia (treatment-emergent AE) [1]: 0 n (%) | Rash (treatment-emergent AE) [1]: 2 (20.0) n (%) | Thrombocytopenia (treatment-emergent AE) [1]: 3 (30.0) n (%) | Thrombocytopenia (treatment-related AE) [1]: 3 (30.0) n (%) | Urinary tract infection (treatment-emergent AE) [1]: 1 (10.0) n (%) | Vomiting (treatment-emergent AE) [1]: 2 (20.0) n (%) | Vomiting (treatment-related AE) [1]: 1 (10.0) n (%) | Abdominal pain (treatment-emergent AE) (qd 3.1: 300 mg qd 5/9 (n=4)): 1 (25.0) n (%) | Abdominal pain (treatment-related AE) (qd 3.1: 300 mg qd 5/9 (n=4)): 1 (25.0) n (%) | Alanine aminotransferase increased (treatment-emergent AE) (qd 3.1: 300 mg qd 5/9 (n=4)): 0 n (%) | Anemia (treatment-emergent AE) (qd 3.1: 300 mg qd 5/9 (n=4)): 1 (25.0) n (%) | Anemia (treatment-related AE) (qd 3.1: 300 mg qd 5/9 (n=4)): 0 n (%) | Any AE (treatment-emergent) (qd 3.1: 300 mg qd 5/9 (n=4)): 4 (100) n (%) | Any grade ≥ 3 AE (qd 3.1: 300 mg qd 5/9 (n=4)): 3 (75.0) n (%) | Any treatment-related AE (qd 3.1: 300 mg qd 5/9 (n=4)): 2 (50.0) n (%) | Any treatment-related grade ≥ 3 AE (qd 3.1: 300 mg qd 5/9 (n=4)): 1 (25.0) n (%) | Asthenia (treatment-emergent AE) (qd 3.1: 300 mg qd 5/9 (n=4)): 0 n (%) | Asthenia (treatment-related AE) (qd 3.1: 300 mg qd 5/9 (n=4)): 0 n (%) | Back pain (treatment-emergent AE) (qd 3.1: 300 mg qd 5/9 (n=4)): 1 (25.0) n (%) | Constipation (treatment-emergent AE) (qd 3.1: 300 mg qd 5/9 (n=4)): 1 (25.0) n (%) | Constipation (treatment-related AE) (qd 3.1: 300 mg qd 5/9 (n=4)): 0 n (%) | Cough (treatment-emergent AE) (qd 3.1: 300 mg qd 5/9 (n=4)): 1 (25.0) n (%) | Decreased appetite (treatment-emergent AE) (qd 3.1: 300 mg qd 5/9 (n=4)): 0 n (%) | Decreased appetite (treatment-related AE) (qd 3.1: 300 mg qd 5/9 (n=4)): 0 n (%)
